The nature of data set [1]: Activity test: peroral administration with insulin, blood glucose decrease and blood insulin increase. In kind it is in vivo, female mice of ICR-CD-1 strain. The conditions noted are these: 0.5 U insulin/10 g bodyweight and 3 mg compound/10 g bodyweight, compared with control group. Details: key to percent decrease in blood sugar (%): The symbol + means that there was no decrease in blood sugar; key to degree of increase of blood insulin: the symbol - means that there was no increase in blood insulin. As for the experimental part: The absorption promoting agents according to the present invention shown in Table 1 were suspended in 0.5% CMC - 0.05 M trisHCl buffer (pH 7.8), and mixed with insulin. The resultant mixture was administered perorally to female mice of ICR-CD-1 strain (aged 5 to 7 weeks) at 0.5 U insulin/10 g bodyweight and 3 mg of the above compound/10 g bodyweight. The percent decrease of blood glucose(%) and the degree of increase of blood insulin after predetermined periods of time were compared with those of the control group, and the results are shown in Table 2.
In the Table, the figures given in the upper rows denote 1) percent of decrease in blood glucose(%) and those in the lower rows in parentheses denote 2) degree of increase in blood insulin level. The symbol + means that there was no decrease in blood sugar and the symbol - means that there was no increase in blood insulin.

A short description of data set [2]: Toxicity: LD50 in mice, perorally administered. The conditions noted are these: mouse, in vivo, po, read-out: LD₅₀. From the text:
Toxicity of O-alkyl tyrosine derivatives is low; each of LD₅₀ in mice perorally administered of O-methyl-N-(4-methylcinnamoyl)-L-tyrosine (S-1), O-methyl-N-(α-fluoro-4-methylcinnamoyl)-L-tyrosine (S-5), O-methyl-N-(β-chloro-4-methylcinnamoyl)-L-tyrosine (S-9) is 3.0 g/kg or higher.

Each structure is given as a SMILES string.

Take `COc1ccc(C[C@@H](NC(=O)C(Cl)=Cc2ccc(C)cc2)C(=O)O)cc1` [Compound S-8, O-methyl-N-(α-chloro-4-methylcinnamoyl)-D-tyrosine]: the “percent decrease in blood sugar (%)” value in data set [1] (60 min.) was “+”.

`COc1ccc(C[C@H](NC(=O)C(F)=Cc2ccccc2)C(=O)O)cc1` [Compound S-4, O-methyl-N-(α-fluorocinnamoyl)-L-tyrosine]: the “percent decrease in blood sugar (%)” value in data set [1] (60 min.) is reported as “+”.

In the case of `COc1ccc(C[C@H](NC(=O)C(F)=Cc2ccc(C)cc2)C(=O)O)cc1` [Compound S-5, O-methyl-N-(α-fluoro-4-methycinnamoyl)-L-tyrosine], the LD50 in data set [2] was ≥ 3000 mg/kg. Also, in data set [1] (60 min.), the “percent decrease in blood sugar (%)” value is listed as “+”.

Regarding `COc1ccc(C[C@@H](NC(=O)C=C(Cl)c2ccc(C)cc2)C(=O)O)cc1` [Compound S-10, O-methyl-N-(β-chloro-4-methylcinnamoyl)-D-tyrosine], the “percent decrease in blood sugar (%)” value in data set [1] (60 min.) was “+”.

For `CCOc1ccc(C[C@H](NC(=O)C(F)=Cc2ccc(C)cc2)C(=O)O)cc1` [Compound S-6, O-ethyl-N-(α-fluroro-4-methylcinnamoyl)-L-tyrosine], the figures for the “degree of increase of blood insulin” value in data set [1] (15 min.), in data set [1] (30 min.) and in data set [1] (60 min.) were 5.3, “-” and “-”, respectively. In addition, the “percent decrease in blood sugar (%)” value in data set [1] (15 min.) was 29.1%; in data set [1] (30 min.), “+”; in data set [1] (60 min.), “+”.

`COc1ccc(C[C@H](NC(=O)C=Cc2ccc(C)cc2)C(=O)O)cc1` [Compound S-1, O-methyl-N-(4-methylcinnamoyl)-L-tyrosine]: the LD50 in data set [2] is ≥ 3000 mg/kg.

With `CCOc1ccc(C[C@H](NC(=O)C=Cc2ccc(C)cc2)C(=O)O)cc1` [Compound S-2, O-ethyl-N-(4-methylcinnamoyl)-L-tyrosine], in data set [1] (30 min.), the “degree of increase of blood insulin” value is given as “-” and the “percent decrease in blood sugar (%)” value is on record as “+”.

Regarding `COc1ccc(C[C@H](NC(=O)C(Cl)=Cc2ccc(C)cc2)C(=O)O)cc1` [Compound S-7, O-methyl-N-(α-chloro-4-methylcinnamoyl)-L-tyrosine], the “percent decrease in blood sugar (%)” value is 28.6% in data set [1] (15 min.), “+” in data set [1] (30 min.) and “+” in data set [1] (60 min.).

In the case of `COc1ccc(C[C@H](NC(=O)C=C(Cl)c2ccc(C)cc2)C(=O)O)cc1` [Compound S-9, O-methyl-N-(β-chloro-4-methylcinnamoyl)-L-tyrosine], the LD50 in data set [2] is ≥ 3000 mg/kg. Besides, the “degree of increase of blood insulin” value in data set [1] (60 min.) is given as “-”.
